The test system of assay [1] is glycoprotein (GP) IIb/IIIa receptor. The note with it: cited from earlier work.
Assay [2] deals with scratching behaviors in FADS mice. As to the kind of experiment: Scratching behaviors in FADS mice upon single systemic administration of αvβ3 integrin inhibitors. Type of assay: in vivo, mouse (FADS, Nestin-cre/Ikk2ff). The text has this: (§1) Nestin-cre transgenic mice were crossed with IKK2^ff mice to prepare Nestin-cre/Ikk2^ff mice specifically lacking IKK2 in their facial skin fibroblasts (Nunomura S, et al. J Invest Dermatol. 139:1274-1283, 2019). These mice inevitably develop atopic dermatitis-like rash limited to the face and intense itchy symptoms, and were therefore designated as Facial Atopic Dermatitis with Scratching (FADS) mice. […] For evaluation of the prophylactic or therapeutic agent of the present invention, FADS mice at 3 to 4 weeks of age or older were used because of showing spontaneous scratching behaviors. It should be noted that in this Example section, the above compound of formula (I) (more particularly “CP4715”) was used as the prophylactic or therapeutic agent of the present invention.
(§2) FADS mice were acclimated for 20 minutes to the environment of a recording cage, and then recorded with a video camera. The recorded videos were replayed, and scratching behaviors were counted assuming that hind paw scratching to the face and the subsequent movement of toe licking or paw lowering to the ground were regarded as one cycle of scratching behavior.
Prior to the administration of the above αvβ3 integrin inhibitors, FADS mice were recorded for 60 minutes with a video camera and then allowed to rest for 15 minutes. The compounds except for GLPG-0187 were each dissolved at 89.5 mM in a diluent (physiological saline containing 50% DMSO and 89.5 mM HCL), from which an amount corresponding to 53.7 μmol/kg per mouse was then taken and diluted with 0.3 mL of PBS, and then administered intraperitoneally. […] Mice administered with 0.3 mL of PBS containing an equal amount of the diluent as calculated based on the body weight were used as a control group.
The mice were recorded for 60 minutes with a video camera immediately after administration of the above αvβ3 integrin inhibitors. The number of scratchings before administration was used as a baseline, and % change from the baseline after administration was calculated for each compound. For statistical analysis, paired t-test was used. A P-value of less than 0.05 was considered to be statistically significant. The effect of an inhibitor whose mean change from the baseline was −65% or more at a P-value of less than 0.01 was expressed as “++”; the effect of an inhibitor whose mean change from the baseline was −60% or less at a P-value of less than 0.05 was expressed as “+”; and the effect of an inhibitor whose mean change from the baseline was −60% or less at a P-value of 0.05 or higher was expressed as “−.”

For assay [3] the test system is unchanged. As to the kind of experiment: Scratching behaviors in FADS mice upon repeated percutaneous administration of CP4715. Type of assay: in vivo, mouse (FADS, Nestin-cre/Ikk2ff). The note with it: 30 μL of 26.85 mM solution externally applied once a day for 28 days to facial rash lesions; FIG. 7.
Source text: as §1, §2
CP4715 was dissolved in a diluent (5% DMSO/15% N-methyl-2-pyrrolidone/80% ethanol) to prepare a 26.85 mM solution. […] Before administration and on Days 3, 7, 14, 21 and 28 of administration, the number of scratchings during 60 minutes was counted for evaluation.

For assay [4] the test system is unchanged. Briefly: Scratching behaviors in FADS mice upon single systemic administration of CP4715. It is filed as in vivo, mouse (FADS, Nestin-cre/Ikk2ff). The note with it: 53.7 μmol/kg i.p., FIG. 2.
Source text: Nestin-cre transgenic mice were crossed with IKK2^ff mice to prepare Nestin-cre/Ikk2^ff mice specifically lacking IKK2 in their facial skin fibroblasts (Nunomura S, et al. J Invest Dermatol. 139:1274-1283, 2019). These mice inevitably develop atopic dermatitis-like rash limited to the face and intense itchy symptoms, and were therefore designated as Facial Atopic Dermatitis with Scratching (FADS) mice. […] For evaluation of the prophylactic or therapeutic agent of the present invention, FADS mice at 3 to 4 weeks of age or older were used because of showing spontaneous scratching behaviors. […]
as §2
Prior to CP4715 administration, FADS mice were recorded for 60 minutes and then allowed to rest for 30 minutes. […] Mice administered with 0.3 mL of PBS containing an equal amount of the diluent as calculated based on the body weight were used as a control group.
The mice were recorded for 80 minutes immediately after drug administration. […]

A further assay relates to αvβ3 integrin. To be noted: cited from earlier work.
The target of another assay is T1, integrin αvβ3 (Homo sapiens, UniProt P05106+P06756).
T1 construct: SW480 cells, a human colon cancer cell line not expressing integrin β3; expressed in transfected cells; host or cells: SW480 cells (human colon cancer) stably expressing human integrin β3
Briefly: Inhibition of periostin-dependent adhesion of SW480 cells expressing integrin αvβ3. It is filed as cell-based. The note with it: immobilized recombinant human periostin, FIG. 6. How it is done: For use in cell adhesion experiments, SW480 cells, a human colon cancer cell line not expressing integrin β3, were genetically engineered to stably express human integrin β3 (Nanri Y, et al. Am J Respir Cell Mol Biol. 62:204-216, 2020). The compounds shown in Table 1 were examined for their inhibitory activity against adhesion between integrin αvβ3 and periostin according to the following procedures. First, a 96-well plate was treated with 10 μg/mL recombinant human periostin (Bio-Techne) at 4 °C for 16 hours to immobilize periostin. The SW480 cells expressing integrin αvβ3 (5×10^4 cells) were reacted at room temperature for 15 minutes with the above compounds at 0.001, 0.01, 0.1 and 1 μM in serum-free DMEM (Dulbecco's Modified Eagle Medium) containing 0.5% bovine serum albumin and 0.25 mM MnCl2. A group receiving no compound was used as a control. The reacted cell suspensions were added to separate wells of the above human periostin-immobilized plate, and the plate was centrifuged at 10×g for 5 minutes and then cultured at 37 °C for 60 minutes. Then, after the adhered cells were washed to remove unbound cells, the adhered cells were fixed with 1% formaldehyde and stained with 0.5% crystal violet. The fixed and stained cells were solubilized with 0.2% Triton X-100 and measured for absorbance at 595 nm. The absorbance of the control (i.e., the group receiving no compound) was set to 0% inhibition. […] Cell adhesion in this test system is periostin-dependent, and a compound inhibiting this cell adhesion can be referred to as a periostin receptor antagonist.

This is an account of results in US20260355192A1, “PROPHYLACTIC OR THERAPEUTIC AGENT FOR PERIOSTIN-MEDIATED DISEASE AND PRURITUS ASSOCIATED THEREWITH” (SAGA UNIVERSITY, priority 2022, published 2026).

Bounds are passed on as bounds.

T1 sequence (P06756 31-889 limits assumed): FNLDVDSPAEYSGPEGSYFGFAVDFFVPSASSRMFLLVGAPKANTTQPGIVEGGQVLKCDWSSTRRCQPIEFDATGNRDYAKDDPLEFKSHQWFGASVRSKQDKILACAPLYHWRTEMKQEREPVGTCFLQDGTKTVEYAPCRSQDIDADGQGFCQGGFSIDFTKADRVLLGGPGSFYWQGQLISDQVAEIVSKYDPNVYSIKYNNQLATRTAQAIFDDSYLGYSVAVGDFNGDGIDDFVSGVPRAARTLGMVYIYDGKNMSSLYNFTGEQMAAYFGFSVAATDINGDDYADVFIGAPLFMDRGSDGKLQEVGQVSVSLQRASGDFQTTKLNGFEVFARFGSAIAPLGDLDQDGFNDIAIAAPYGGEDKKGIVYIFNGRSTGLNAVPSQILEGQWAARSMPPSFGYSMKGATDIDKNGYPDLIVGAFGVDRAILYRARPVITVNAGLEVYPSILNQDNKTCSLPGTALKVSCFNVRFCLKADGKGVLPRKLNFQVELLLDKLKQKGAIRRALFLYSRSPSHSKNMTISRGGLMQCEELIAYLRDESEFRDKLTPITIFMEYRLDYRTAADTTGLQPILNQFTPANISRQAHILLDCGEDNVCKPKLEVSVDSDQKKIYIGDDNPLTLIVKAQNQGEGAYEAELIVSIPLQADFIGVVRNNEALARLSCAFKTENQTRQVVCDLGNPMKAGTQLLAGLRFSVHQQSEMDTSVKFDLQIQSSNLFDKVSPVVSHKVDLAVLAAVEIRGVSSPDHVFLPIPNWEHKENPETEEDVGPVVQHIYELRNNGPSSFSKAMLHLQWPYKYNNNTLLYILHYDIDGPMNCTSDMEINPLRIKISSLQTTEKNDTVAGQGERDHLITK
T1 sequence (P06756 891-1048 partner limits assumed): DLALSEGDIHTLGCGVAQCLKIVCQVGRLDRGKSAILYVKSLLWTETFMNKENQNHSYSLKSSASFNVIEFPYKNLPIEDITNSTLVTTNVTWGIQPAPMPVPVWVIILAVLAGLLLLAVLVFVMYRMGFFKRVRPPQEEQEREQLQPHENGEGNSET
T1 sequence (P05106 27-788): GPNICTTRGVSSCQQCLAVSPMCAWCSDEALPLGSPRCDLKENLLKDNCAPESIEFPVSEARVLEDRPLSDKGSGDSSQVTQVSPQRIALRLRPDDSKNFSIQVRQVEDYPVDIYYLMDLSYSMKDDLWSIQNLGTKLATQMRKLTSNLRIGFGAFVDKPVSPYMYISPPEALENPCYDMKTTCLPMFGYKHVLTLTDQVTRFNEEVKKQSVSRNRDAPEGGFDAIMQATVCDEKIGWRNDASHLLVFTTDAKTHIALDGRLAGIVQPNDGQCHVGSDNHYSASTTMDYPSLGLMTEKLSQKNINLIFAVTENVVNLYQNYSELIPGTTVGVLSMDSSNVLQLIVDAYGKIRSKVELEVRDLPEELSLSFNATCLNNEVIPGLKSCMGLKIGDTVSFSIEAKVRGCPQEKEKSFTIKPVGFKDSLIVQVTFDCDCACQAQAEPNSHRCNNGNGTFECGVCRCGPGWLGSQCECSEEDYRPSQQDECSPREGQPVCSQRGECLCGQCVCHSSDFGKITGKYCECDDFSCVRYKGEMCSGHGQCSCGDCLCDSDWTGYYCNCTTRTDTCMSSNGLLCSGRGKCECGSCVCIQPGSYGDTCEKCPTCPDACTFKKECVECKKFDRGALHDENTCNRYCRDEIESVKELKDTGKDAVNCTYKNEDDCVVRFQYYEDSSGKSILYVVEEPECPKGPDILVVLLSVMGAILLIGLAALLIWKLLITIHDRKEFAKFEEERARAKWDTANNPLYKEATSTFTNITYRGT

As for `COc1cc(C(=O)NC[C@H](NS(=O)(=O)c2ccccc2)C(=O)O)ccc1N1CCC(NC2=NCCCN2)CC1` [CP4715, (S)-3-(3-methoxy-4-(4-((1,4,5,6-tetrahydropyrimidin-2-yl)amino)piperidin-1-yl)benzamido)-2-(phenylsulfonamido)propanoic acid], in assay [1], the “antagonistic effect on GP IIb/IIIa receptor” value was “antagonistic effect”. For the same molecule, the “% Change from baseline in the number of scratchings (mean ± standard error)” value in assay [2] (53.7 μmol/kg i.p., single, 60 minutes after administration vs before administration) is listed as −68.0 ± 14.0%. In addition, in assay [2] (single i.p., 53.7 μmol/kg (GLPG-0187 5.37 μmol/kg), paired t-test), the “grade of effect on % change from the baseline in the number of scratchings” value is “++ (mean change from the baseline was −65% or more at a P-value of less than 0.01)”. Moreover, in assay [3], the “time-dependent enhancement of scratching behaviors” value is “suppressed”. In assay [4], the “time after administration until which the suppressive effect on scratching was sustained” value is 60 min. Besides, the “scratching behaviors (number of scratchings per minute)” value in assay [4] (at 20 minutes or later after administration, Mann-Whitney's U-test vs diluent control) is “significantly suppressed (P<0.05)”. Further, in the assay on αvβ3 integrin, the “antagonistic effect on αvβ3 integrin” value was “antagonistic effect”. The IC50 at integrin αvβ3 (SW480 cells expressing human integrin β3, compounds at 0.001-1 μM, read-out: 50% inhibition concentration (IC50 value) for cell adhesion inhibitory activity) was at most 1 nM. Also, the “cell adhesion inhibitory effect (in words)” value at integrin αvβ3 (SW480 cells expressing integrin αvβ3) was “high”.
